Measured values from ChEMBL document CHEMBL4834489 (ACS Med Chem Lett, 2021).

What was measured:
[1] = Clearance in human liver microsomes at 1 uM followed by NADPH addition measured up to 60 mins by LC-MS/MS analysis relative to hepatic blood flow; format: ADME, Microsome; conditions: read-out: CLH
[2] = Clearance in human hepatocytes at 1 uM measured up to 6 hrs by LC-MS/MS analysis relative to hepatic blood flow; format: ADME, cell-based, Hepatocyte; conditions: read-out: CLH

CNC(=O)c1sc2ncn(Cc3nc(C[C@H](O)c4ccc(Cl)cc4)no3)c(=O)c2c1C
hepatic extraction ratio at 1 h, 1 µM [1]: < 0.23 | hepatic extraction ratio at 6 h, 1 µM [2]: 0.29

Cc1c(C(N)=O)sc2ncn(Cc3nc(C[C@H](O)c4cc(F)cc(F)c4)no3)c(=O)c12
hepatic extraction ratio at 1 h, 1 µM [1]: < 0.23 | hepatic extraction ratio at 6 h, 1 µM [2]: 0.23

Cc1c(C(N)=O)sc2ncn(Cc3nc(C[C@H](O)c4ccc(Cl)cc4)no3)c(=O)c12
hepatic extraction ratio at 1 h, 1 µM [1]: 0.29 | hepatic extraction ratio at 6 h, 1 µM [2]: 0.25

O=C1NCCc2c1sc1ncn(Cc3nc(C[C@H](O)c4ccc(Cl)cc4)no3)c(=O)c21
hepatic extraction ratio at 1 h, 1 µM [1]: < 0.23 | hepatic extraction ratio at 6 h, 1 µM [2]: 0.31

CNC(=O)c1sc2ncn(Cc3nc(C[C@H](O)c4ccc5c(c4)OCO5)no3)c(=O)c2c1C
hepatic extraction ratio at 1 h, 1 µM [1]: 0.29 | hepatic extraction ratio at 6 h, 1 µM [2]: 0.24

Cc1c(C(N)=O)sc2ncn(Cc3nc(C[C@H](O)c4ccc5c(c4)OCO5)no3)c(=O)c12
hepatic extraction ratio at 1 h, 1 µM [1]: < 0.23 | hepatic extraction ratio at 6 h, 1 µM [2]: 0.24

Cc1c(C(=O)NCC(F)F)sc2ncn(Cc3nc(C[C@H](O)c4ccc(Cl)cc4)no3)c(=O)c12
hepatic extraction ratio at 1 h, 1 µM [1]: 0.24 | hepatic extraction ratio at 6 h, 1 µM [2]: 0.36

Cc1c(C(N)=O)sc2ncn(Cc3nc(C[C@H](O)c4cc5ccccc5o4)no3)c(=O)c12
hepatic extraction ratio at 1 h, 1 µM [1]: < 0.23 | hepatic extraction ratio at 6 h, 1 µM [2]: 0.36

NC(=O)c1sc2ncn(Cc3nc(C[C@H](O)c4ccc(Cl)cc4)no3)c(=O)c2c1Cl
hepatic extraction ratio at 1 h, 1 µM [1]: < 0.23 | hepatic extraction ratio at 6 h, 1 µM [2]: 0.39

Cc1c(C(=O)NCC(C)(C)O)sc2ncn(Cc3nc(C[C@H](O)c4ccc(Cl)cc4)no3)c(=O)c12
hepatic extraction ratio at 1 h, 1 µM [1]: < 0.23 | hepatic extraction ratio at 6 h, 1 µM [2]: 0.18
